Test results published in US9856239B1, “Carboxylic acid compound, method for preparation thereof, and use thereof” (INVENTISBIO SHANGHAI LTD., priority 2014, dated 2018).

Biological target: human URAT1 (Homo sapiens (Human), UniProt Q96S37)
Test: Inhibition of 14C-uric acid absorption in URAT1 cell model (HEK-293T cells transfected with human URAT1)
Format: cell-based
Details: HEK-293T cells transfected with human URAT1, 14C-uric acid uptake, 5 min, 37 degrees; read-out: URAT1 IC50 Activity level
Experimental: After 5 min, the buffer was removed from cell wells, added with 100 microliter of ice-cold and no chloride ions-containing HBSS buffer to gently rinse cells within wells so as to stop them from absorbing ^14C-uric acid, the rinsing was repeated 3 times in the same manner. 150 microliter of cell lysate (100 mM of NaOH) was added in each well. Cell plate was placed on a vibrating plate and vibrated for 10 min at a speed of 600 rpm such that the cells were completely lysed. The cell plate was put in a centrifuge and spun for 5 min at a speed of 1000 rpm, then 45 microliter of supernatant was sucked out from each well and transferred to 96-well plate (Isoplate-96 Microplate from PerkinElmer). In the new 96-well plate, 150 microliter of Ultima Gold XR scintillation solution was added in each well. The 96-well plate was vibrated for 10 min at a speed of 600 rpm on a vibrating plate. Finally, the 96-well plate was put in a MicroBeta Trilux Counter from PerkinElmer and was read, then IC50 values were calculated, and the results are shown in Table 1 below. Wherein

Chain of human URAT1 (Q96S37 whole entry): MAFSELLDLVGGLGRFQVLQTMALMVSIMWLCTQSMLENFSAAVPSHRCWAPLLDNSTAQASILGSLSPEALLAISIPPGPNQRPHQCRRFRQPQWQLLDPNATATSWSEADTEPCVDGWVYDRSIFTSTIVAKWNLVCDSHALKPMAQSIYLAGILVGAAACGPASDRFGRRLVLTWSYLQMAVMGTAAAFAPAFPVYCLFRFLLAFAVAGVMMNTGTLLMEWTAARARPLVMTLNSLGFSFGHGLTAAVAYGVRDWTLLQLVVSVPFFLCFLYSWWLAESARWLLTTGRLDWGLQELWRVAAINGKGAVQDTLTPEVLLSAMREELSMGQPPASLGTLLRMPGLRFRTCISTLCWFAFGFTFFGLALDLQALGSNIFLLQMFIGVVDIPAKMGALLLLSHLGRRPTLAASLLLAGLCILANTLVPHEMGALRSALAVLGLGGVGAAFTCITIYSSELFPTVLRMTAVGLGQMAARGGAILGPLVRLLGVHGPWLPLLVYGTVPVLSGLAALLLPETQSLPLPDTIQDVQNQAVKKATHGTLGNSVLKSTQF

IC50 [nM] | SMILES
< 100 | N#Cc1ccc(-c2cnccc2SCC2(C(=O)O)CC2)c2ccccc12 [Compound 1, 1-(((3-(4-cyanonaphthalen-1-yl)pyridin-4-yl)thio)methyl)cyclopropanecarboxylic acid]
100 to 1000 | N#Cc1ccc(-c2cnccc2SCCC(=O)O)c2ccccc12 [Compound 2]
< 100 | N#Cc1ccc(-c2cnccc2SCCCC(=O)O)c2ccccc12 [Compound 3]
< 100 | N#Cc1ccc(-c2cnccc2SCC2(CC(=O)O)CC2)c2ccccc12 [Compound 4, 2-(1-(((3-(4-cyanonaphthalen-1-yl)pyridin-4-yl)thio)methyl)cyclopropyl)acetic acid]
100 to 1000 | N#Cc1ccc(-c2cnccc2SC[C@H]2C[C@@H](C(=O)O)C2)c2ccccc12 [Compound 5]
> 1000 | N#Cc1ccc(-c2cnccc2SC[C@H]2C[C@H](C(=O)O)C2)c2ccccc12 [Compound 6]
100 to 1000 | N#Cc1ccc(-c2cnccc2S[C@H]2C[C@H](C(=O)O)C2)c2ccccc12 [Compound 7]
> 1000 | CC(C)(Sc1ccncc1-n1cc(C#N)c2ccccc21)C(=O)O [Compound 8, 2-((3-(3-cyano-1H-indol-1-yl)pyridin-4-yl)thio)-2-methylpropanoic acid]
> 1000 | CC(C)(Sc1ccncc1-n1nc(C2CC2)c2ccccc21)C(=O)O [Compound 9]
> 1000 | CC(C)(Sc1ccncc1-c1ncc(C#N)c2ccccc12)C(=O)O [Compound 10, 2-((3-(4-cyanoisoquinolin-1-yl)pyridin-4-yl)thio)-2-methylpropanoic acid]
< 100 | N#Cc1ccc(-c2ccccc2SCC2(CC(=O)O)CC2)cc1 [Compound 11, 2-(1-((2-(4-cyanophenyl)phenylthio)methyl)cyclopropyl)acetic acid]
100 to 1000 | N#Cc1ccc(-c2cnccc2SCCC(F)(F)C(=O)O)c2ccccc12 [Compound 12]
100 to 1000 | N#Cc1ccc(-c2cnccc2Sc2ccccc2C(=O)O)c2ccccc12 [Compound 13]
100 to 1000 | N#Cc1ccc(-c2cnccc2Sc2cccc(C(=O)O)c2)c2ccccc12 [Compound 14]
100 to 1000 | N#Cc1ccc(-c2cnccc2Sc2ccc(C(=O)O)cc2)c2ccccc12 [Compound 15]
< 100 | N#Cc1ccc(-c2cnccc2SCC2(C(=O)O)CCCC2)c2ccccc12 [Compound 16]
< 100 | N#Cc1ccc(-c2cnccc2SCC2(C(=O)O)CCC2)c2ccccc12 [Compound 17, 1-(((3-(4-cyanonaphthalen-1-yl)pyridin-4-yl)thio)methyl)cyclobutanecarboxylic acid]
> 1000 | Cc1cc(C#N)cnc1-c1cnccc1SC(C)(C)C(=O)O [Compound 19]

IC50 [nM] | SMILES
< 100 | N#Cc1ccc(-c2cnccc2SCC2(CC(=O)O)CC2)cc1 [Compound 20, 2-(1-(((3-(4-cyanophenyl)pyridin-4-yl)thio)methyl)cyclopropyl)acetic acid]
100 to 1000 | O=C(O)CC1(CSc2ccncc2-c2ccc(CO)cc2)CC1 [Compound 22, 2-(1-((3-(4-(hydroxymethyl)phenyl)pyridin-4-ylthio)methyl)cyclopropyl)acetic acid]
> 1000 | N#Cc1ccc(-c2cnccc2NCC(=O)O)c2ccccc12 [Compound 24, 2-(3-(1-cyanonaphthalen-4-yl)pyridin-4-ylamino)acetic acid]
> 1000 | CC(C)(Nc1ccncc1-c1ccc(C#N)c2ccccc12)C(=O)O [Compound 25]
> 1000 | N#Cc1ccc(-c2cnccc2NCCC(=O)O)c2ccccc12 [Compound 26]
> 1000 | N#Cc1ccc(-c2cnccc2NCCCC(=O)O)c2ccccc12 [Compound 27]
> 1000 | N#Cc1ccc(-c2cnccc2NCC(=O)O)cc1 [Compound 28]
> 1000 | N#Cc1ccc(-c2cnccc2OCC2(CC(=O)O)CC2)cc1 [Compound 29, 2-(1-(((3-(4-cyanophenyl)pyridin-4-yl)oxy)methyl)cyclopropyl)acetic acid]
> 1000 | N#Cc1ccc(-c2cnccc2OCC2(CC(=O)O)CC2)c2ccccc12 [Compound 30]
> 1000 | CC(C)(Oc1ccncc1-c1ccc(C#N)cc1)C(=O)O [Compound 31, 2-(3-(4-cyanophenyl)pyridin-4-yloxy)-2-methylpropanoic acid]
100 to 1000 | CC(C)(Sc1ccncc1-c1ccc(C2(O)CC2)cc1)C(=O)O [Compound 33, 2-((3-(4-(1-hydroxycyclopropyl)phenyl)pyridin-4-yl)thio)-2-methylpropanoic acid]
100 to 1000 | O=C(O)CC1(CSc2ccncc2-c2ccc(C3(O)CC3)cc2)CC1 [Compound 34, 2-(1-(((3-(4-(1-hydroxycyclopropyl)phenyl)pyridin-4-yl)thio)methyl)cyclopropyl)acetic acid]
100 to 1000 | CC(C)(Sc1ccncc1-c1ccc(C2(O)COC2)cc1)C(=O)O [Compound 35, 2-((3-(4-(3-hydroxyoxetan-3-yl)phenyl)pyridin-4-yl)thio)-2-methylpropanoic acid]
> 1000 | CC(C)(Sc1ccncc1-c1ccc(C#N)cn1)C(=O)O [Compound 37, 2-((5-cyano-[2,3′-bipyridine]-4′-yl)thio)-2-methylpropanoic acid]
> 1000 | N#Cc1ccc(-c2cnccc2SCC2(CC(=O)O)CC2)nc1 [Compound 38, 2-(1-(((5-cyano-2,3′-bipyridin-4′-yl)thio)methyl)cyclopropyl)acetic acid]
> 1000 | O=C(O)CC1(CSc2ccncc2-c2ccc(C(=O)O)cn2)CC1 [Compound 39, 4′-(((1-(carboxymethyl)cyclopropyl)methyl)thio)-[2,3′-bipyridine]-5-carboxylic acid]
< 100 | [2H]C([2H])([2H])C(Sc1ccncc1-c1ccc(C#N)c2ccccc12)(C(=O)O)C([2H])([2H])[2H] [Compound 40, di(methyl-d3)-2-((3-(4-cyanonaphthalen-1-yl)pyridin-4-yl)thio)acetic acid]
< 100 | [2H]C([2H])([2H])C(C)(Sc1ccncc1-c1ccc(C#N)c2ccccc12)C(=O)O (stereo not drawn) [Compound 41, 2-methyl-d3-2-((3-(4-cyanonaphthalen-1-yl)pyridin-4-yl)thio) propanoic acid]

SMILES | IC50 [nM]
CC(C)(CCC(=O)O)Sc1ccncc1-c1ccc(C#N)c2ccccc12 [Compound 18, 4-((3-(4-cyanonaphthalen-1-yl)pyridin-4-yl)thio)-4-methylpentanoic acid] | < 100
N#Cc1ccc(-c2cnccc2CCC(=O)O)c2ccccc12 [Compound 32, 3-(3-(4-cyanonaphthalen-1-yl)pyridin-4-yl) propanoic acid] | > 1000
O=C(O)CC1(CSc2ccncc2-c2ccc(C3(O)COC3)cc2)CC1 [Compound 36, 2-(1-(((3-(4-(3-hydroxyoxetan-3-yl)phenyl)pyridin-4-yl)thio)methyl)cyclopropyl)acetic acid] | > 1000
